Assay [1] in a line: Anorectic effect in 8 hour meal-fed Zucker rats (Example 17). The class given is in vivo, lean (Fa/-) and obese (fa/fa). The procedure: Lean (Fa/-) Zucker rats and obese (fa/fa) Zucker rats of both sexes were individually housed in wire-bottomed cages in a temperature-regulated (22° C.) light-controlled room (12 hr light, 6 a.m. to 6 p.m. and 12 hr dark, 6 p.m. 6 a.m.). The animals were fed a high carbohydrate (70% glucose) diet ad libitum for 13 days, dosed with the indicated compounds by oral intubation for 9 days and allowed to recover for 3 days. The animals were then meal fed from 8 a.m. to 4 p.m. for a period of 5 days, following which they were continued on the same meal schedule for an additional 6 days. During the 6-day period, the animals were administered the indicated compounds by oral intubation at 8 a.m. and 12 p.m. Food cups were weighed immediately after the meal.

Assay [2] in a line: Body weight gain in 8 hour meal-fed Zucker rats (Example 18). Type of assay: in vivo, lean (Fa/-) and obese (fa/fa). The following applies: 1.32 mmoles/kg b.i.d. oral, 6 days, mean ± S.E. As for the experimental part:
Lean (Fa/-) Zucker rats and obese (fa/fa) Zucker rats of both sexes were individually housed in wire-bottomed cages in a temperature-regulated (22° C.) light-controlled room (12 hr light, 6 a.m. to 6 p.m. and 12 hr dark, 6 p.m. to 6 a.m.). The animals were fed a high carbohydrate (70% glucose) diet ad libitum for 13 days, dosed with the indicated compounds by oral intubation for 9 days and allowed to recover for 3 days. The animals were then meal fed from 8 a.m. to 4 p.m. for a period of 5 days, following which they were continued on the same meal schedule for an additional 6 days. During the 6-day period, the animals were administered the indicated compounds by oral intubation at 8 a.m. and 12 p.m. Body weight gain during the 6-day period was determined.

Assay [3] in a line: Anorectic activity, body weight and carcass analysis in mammals (summary statements). Type of assay: in vivo. The following applies: acute meal-fed assay utilizing three diets and pyramiding dose studies; compared with hydroxycitric acid.
Assay [4] in a line: Effect of stereoisomers of chlorocitric acid on food consumption in meal-fed rats (Example 14). Type of assay: in vivo, Charles River female rats. To be noted: 2.63 mmoles/kg oral, mean ± S.E.; control 13.5 ± 0.8. The procedure:
Animals were fasted 48 hr, then meal-fed the 70% glucose diet described by A. C. […] Following 5 to 12 days alimentation on the meal-feeding regimen, rats were dosed with the appropriate compounds orally by intubation 1/2 hr before the 3 hr meal. Food cups were weighed immediately after the meal. The control group consisted of 5 to 10 rats, while the experimental group consisted of 4 to 6 rats.

Another assay has as its system Stomach Emptying. As to the kind of experiment: Effect on stomach emptying ([14C]glucose load) in rats (Example 25). The class given is in vivo. The procedure:
Rats were trained to consume a 3 hr 70% glucose meal from 8 a.m. to 11 a.m. daily. On the experimental day, compounds were administered orally by intubation 30 min before a [^14 C]glucose load was given also by intubation. […] Sixty minutes later the rats were killed by decapitation; blood and stomachs were collected on ice.
Data are expressed as follows: dpm×10^3 per ml of serum and dpm×10^3 per stomach.

Assay [5] deals with fatty acid and cholesterol syntheses. Briefly: Inhibition of fatty acid, lipid and cholesterol synthesis (summary statements).
A further assay concerns Fatty Acid Synthesis. As to the kind of experiment: Fatty acid synthesis in pair-feeding experiments in rats (Example 24). The class given is in vivo, female rats of the Charles River CD strain. The procedure:
Female rats of the Charles River CD strain (Charles River Breeding Laboratories, Wilmington, Mass.) weighing 120-160 g (ca. […] old) were housed individually in wire-bottomed cages in a temperature-regulated (22 C.), light-controlled room (12 hour light 6 A.M.-6 P.M., and dark 6 P.M.-6 A.M.). They had free access to water and were fed a commercial diet (Purina Rodent Chow, Ralston Purina Co., St. Louis, Mo.) ad libitum for at least 1 week prior to the experiment. Animals were fasted 48 hours, then meal-fed a synthetic diet (G-70) daily from 8-11 A.M. for the remainder of the experiment. Food consumption and body weight were measured during the meal-feeding period. […] Food spillage was measured daily.
Each group consisted of 8 to 10 (140 to 160 g) rats. Food intake was monitored for a 3 day period; the animals were dosed immediately before the 3 hr meal. Pair-fed animals were fed the amount of food which the drug treated groups ate on the previous days (days 2 and 3).
Immediately after the 3 hour feeding period, rats were administered intravenously a 0.25 ml saline (pH 7.4 to 7.6) solution with the following composition: 12.3 mg alanine, 5 μCi [^14 C] alanine (specific activity=156 mCi/mmole), 30.6 mg-ketoglutarate (as an amine acceptor for transaminase) and 1 mCi [^3 H] water (specific activity=100 mCi/g). […] [^3 H] Water was employed to determine the total rate of lipogenesis, since tritium is incorporated into fatty acids independent of the source of carbon precursors. Animals were killed by decapitation and blood collected in centrifuge tubes 30 minutes after the radioactive pulse, unless otherwise indicated. The specific radioactivity of the body water of each rat was determined by counting a diluted serum aliquot in 10 ml following cocktail: toluene (2.41), 2-methoxyethanol (1.61), naphthalene (320 g), and BBOT (2,5-bis-2-(5-tert-butylbenzoxazolyl)-thiophene, 16 g). Liver, and small intestine was excised rapidly, weighed, and homogenized in 15 ml H2 O in a Virtis 45 Macro Homogenizer for 15 sec at ca. 30,000 rpm. Duplicate 3 ml aliquots of whole homogenates were saponified, extracted, and the absolute radioactivity (dpm) determined. Liver lipids were extracted totally or separated into fatty acids and cholesterol by anion exchange chromatography. It was determined by anion exchange chromatography that the total lipid extract of liver contained fatty acids (96-97%) and cholesterol (3-4%). Data are expressed as nmoles [^14 C] alanine or μ moles [^3 H] water converted into lipid/g tissue/30 minutes. The nmoles [^14 C] alanine were calculated according to the injected load of alanine, as reported previously by A. C. Sullivan et al., Arch. Biochem. and Biophys., 150, 183 (1972). The μ moles [^3 H] water were determined as described previously by A. C. […]

A short description of assay [6]: Comparative anorectic activity: food consumption in meal-fed rats (acute, Example 13). The class given is in vivo, Charles River female rats. To be noted: 3 hr meal, mean ± S.E. The procedure:
Charles River female rats (Charles River Breeding Laboratories, Wilmington, Mass.), weighing 150 to 175 g, were individually housed in wire-bottomed cages in a temperature-regulated (22° C.) light-controlled room (12 hr light, 6 a.m. to 6 p.m. and 12 hr dark, 6 p.m. to 6 a.m.). Animals were fasted 48 hr, then meal-fed the 70% glucose diet described by A. C. Sullivan, et al., J. Nutrition, 101, 265 (1971) from 8 to 11 a.m. Following 5 to 13 days alimentation on the meal-feeding regimen, rats were dosed with the appropriate compounds orally by intubation 1/2 hr before the 3 hr meal. Food cups were weighed immediately after the meal. The control group consists of 31 rats while each drug treated group consists of 5 to 12 rats.
The G-70 diet consisted of 70% glucose, 23% vitamin-free casein, 5% Phillips and Hart salt mixture IV, 1% corn oil, 1% complete vitamin mixture, and 40 g/kg cellulose. To ensure complete uniformity, all diets were mixed with a twen-shell dry blender equipped with an itensifier bar (Patterson-Kelly Co., East Stroudsburg, Pa.).

Assay [7] in a line: Food intake in dogs, pyramiding oral doses (Examples 26 and 27). The class given is in vivo, beagle dogs. As for the experimental part: Twelve beagle dogs of both sexes weighing 7.6-12.2 kg were used for this test. The test compounds were contained in gelatin capsules for oral administration to two dogs of each sex. The animals were weighed and food consumption calculated daily excluding weekends throughout the test period. Each animal received 800 grams of diet daily consisting of 400 grams of Wayne pellet dog food mixed with 400 ml distilled water. The animals received pyramiding oral doses of the test compound over the three week period. On Monday and Tuesday of the first week the animals were weighed and food consumption was recorded (control). The animals received 3 mg/kg on Wednesday and 10 mg/kg on Friday of the first week. Doses of 30, 100 and 300 mg/kg were administered on Monday, Wednesday and Friday respectively during the second week. A final dose of 1000 mg/kg was administered on Monday of the third week.
Food intake was determined by the procedure by pyramiding doses described in Example 26.

[8] abbreviates: Fa/- lean, 1.32 mmoles/kg oral, treatment day 1.
[9] abbreviates: Fa/- lean, 1.32 mmoles/kg oral, treatment day 2.
Setting [10] is: Fa/- lean, 1.32 mmoles/kg oral, treatment day 3.
Where [11] appears, read: Fa/- lean, 1.32 mmoles/kg oral, treatment day 4.
Where [12] appears, read: Fa/- lean, 1.32 mmoles/kg oral, treatment day 5.
Setting [13] is: Fa/- lean, 1.32 mmoles/kg oral, treatment day 6.
Where [14] appears, read: Fa/- lean, 1.32 mmoles/kg, day 0 (pretreatment).
Where [15] appears, read: fa/fa obese, 1.32 mmoles/kg oral, treatment day 1.
The mark [16] stands for this setting: fa/fa obese, 1.32 mmoles/kg oral, treatment day 2.
The mark [17] stands for this setting: fa/fa obese, 1.32 mmoles/kg oral, treatment day 3.
Setting [18] is: fa/fa obese, 1.32 mmoles/kg oral, treatment day 4.
Setting [19] is: fa/fa obese, 1.32 mmoles/kg oral, treatment day 5.
The mark [20] stands for this setting: fa/fa obese, 1.32 mmoles/kg oral, treatment day 6.
[21] abbreviates: fa/fa obese, 1.32 mmoles/kg, day 0 (pretreatment).
The mark [22] stands for this setting: 0.33 mmoles/kg oral, 60 min after [14C]glucose load, mean ± S.E.
[23] abbreviates: test day 20, no dose, (±) one animal, (+) and (-) two animals.

`O=C(O)CC(O)(CC(=O)O)C(=O)O` [Citric Acid]: the “Daily Food Consumption” value in assay [1] (setting [8]) came to 10.6 ± 1.2 g; in assay [1] (setting [9]) it was 10.0 ± 1.2 g; in [1] (setting [10]), 12.7 ± 1.0 g; in [1] (setting [11]), 11.9 ± 0.7 g; in assay [1] (setting [12]) it was 12.6 ± 0.8 g; in assay [1] (setting [13]) it was 13.1 ± 0.9 g. For the same compound, the “Daily Food Consumption” value worked out at 11.0 ± 0.8 g in assay [1] (setting [14]); 11.4 ± 0.8 g in assay [1] (setting [15]); 13.8 ± 1.2 g in assay [1] (setting [16]); 16.5 ± 1.0 g in assay [1] (setting [17]); 14.8 ± 0.9 g in assay [1] (setting [18]); 15.7 g in assay [1] (setting [19]). The “Daily Food Consumption” value came to 16.0 ± 1.0 g in assay [1] (setting [20]) and 13.4 ± 0.8 g in [1] (setting [21]). Also, the “Body Weight Gain” value in assay [2] (Fa/- lean) was 2.8 ± 3.7 g; in [2] (fa/fa obese) it was 3.4 ± 1.6 g. Further, the “anorectic activity as measured by reduction in food consumption” value in [3] is “inactive”. This compound also yielded a Food consumption in assay [4] of 12.7 ± 1.7 g.

In the case of `O=C(O)CC(O)(C(=O)O)C(O)C(=O)O` (single isomer, unassigned) [hydroxycitric acid, reference compound], in the assay on Stomach Emptying (comparable doses), the “delay in gastric emptying” value was “delayed gastric emptying”. Moreover, the “metabolic activity on lipid (fatty acid) and cholesterol syntheses” value in assay [5] is “inhibition of fatty acid and cholesterol syntheses”.

For `O=C(O)C[C@@](O)(C(=O)O)[C@H](O)C(=O)O` [Trisodium (-)-threo-hydroxycitrate, reference compound], in the assay on Stomach Emptying (setting [22]), the “Serum, total per ml” value is listed as 4.5 ± 0.3 dpm × 10^3. The “Stomach Contents, total per stomach” value with Stomach Emptying (setting [22]) is listed as 1973 ± 154 dpm × 10^3. The “Fatty Acid Synthesis, 3H2O converted” value in the assay with Fatty Acid Synthesis (2.63 mmoles/kg, pair-fed control 21.3 ± 2.3) is reported as 14.4 ± 1.6 μmoles ^3 H2 O converted/g liv. Further, in the assay on Fatty Acid Synthesis (2.63 mmoles/kg, pair-fed control 714 ± 86), the “Fatty Acid Synthesis, [14C]alanine converted” value was 279 ± 36 nmoles [^14 C]alanine converte. Moreover, the Food consumption in assay [6] (0.33 mmoles/kg oral) was 11.5 ± 0.7 g; in assay [6] (0.66 mmoles/kg oral), 9.0 ± 0.6 g; in assay [6] (1.32 mmoles/kg oral), 9.9 ± 1.0 g; in [6] (2.63 mmoles/kg oral) it was 8.9 ± 0.8 g.

Regarding `O=C(O)C[C@@](O)(C(=O)O)[C@@H](Cl)C(=O)O` (relative stereo) [(±)-threo-Chlorocitric acid], the “Food Consumption, % of control” value in [7] (setting [23]) is 167 % of control. In addition, the “Food consumption” value in [7] (setting [23]) is recorded as 800 g; in [7] (test days -2, -1, before dosing (control period)), 479 ± 96 g; in [6] (0.08 mmoles/kg oral), 6.4 ± 0.6 g; in assay [6] (0.17 mmoles/kg oral), 6.8 ± 0.7 g; in [6] (0.33 mmoles/kg oral), 5.7 ± 0.5 g; in [6] (0.66 mmoles/kg oral) it was 3.9 ± 0.3 g. Moreover, the Food consumption in [6] (1.32 mmoles/kg oral) stood at 3.1 ± 0.4 g; in assay [6] (2.63 mmoles/kg oral), 3.8 ± 0.3 g. The “Daily Food Consumption” value in [1] (setting [8]) worked out at 11.6 ± 0.8 g; in [1] (setting [9]), 7.5 ± 0.8 g; in assay [1] (setting [10]), 8.6 ± 1.3 g; in [1] (setting [11]) it was 6.9 ± 1.0 g; in assay [1] (setting [12]), 6.1 ± 0.7 g; in assay [1] (setting [13]), 7.2 ± 1.0 g. Besides, the “Daily Food Consumption” value in assay [1] (setting [14]) was 12.3 ± 0.7 g; in assay [1] (setting [15]), 13.1 ± 0.9 g; in [1] (setting [16]), 7.8 ± 0.8 g; in [1] (setting [17]), 6.6 ± 0.2 g; in assay [1] (setting [18]), 5.9 ± 0.8 g; in assay [1] (setting [19]) it was 4.6 ± 1.1 g. Besides, the “Daily Food Consumption” value in [1] (setting [20]) was found to be 5.3 ± 1.3 g; in assay [1] (setting [21]), 14.3 ± 0.8 g. The “Body Weight Gain” value in assay [2] (Fa/- lean) was -22.9 ± 2.9 g; in assay [2] (fa/fa obese), -27.9 ± 4.6 g. Further, the “Fatty Acid Synthesis, 3H2O converted” value in the assay on Fatty Acid Synthesis (1.32 mmoles/kg, pair-fed control 25.6 ± 3.9) is reported as 21.4 ± 1.6 μmoles ^3 H2 O converted/g liv. In the assay on Fatty Acid Synthesis (1.32 mmoles/kg, pair-fed control 639 ± 69), the “Fatty Acid Synthesis, [14C]alanine converted” value is 809 ± 67 nmoles [^14 C]alanine converte.

For the origin of these results see patent US4443619A, “Chlorocitric acids” (Hoffmann-La Roche Inc., priority 1981, dated 1984).
